What was measured:
Mus musculus [1] = species on record: Mus musculus; test: Ratio of TD50 to ED50, expressed as protective index; assay type: functional
[2] = Anticonvulsant activity against audiogenic Clonic seizures in DBA/2 mice, administered ip 30 minutes before auditory stimulation.; assay type: functional; details: Mus musculus
[3] = Anticonvulsant activity against audiogenic tonic seizures in DBA/2 mice, administered ip 30 minutes before auditory stimulation; assay type: functional; details: Mus musculus
Mus musculus [4] = species on record: Mus musculus; test: Dose required to produce locomotor deficit assessed by rotarod test in DBA/2 mice.; assay type: functional
Mus musculus [5] = test: Effective dose required for anticonvulsant activity by ip administration against clonic phase of audiogenic seizures in DBA/2 mice after pretreatment with aniracetam+ 2,3-benzodiazepine (p<0.01); assay type: functional
Mus musculus [6] = test: Effective dose required for anticonvulsant activity by ip administration against tonic phase of audiogenic seizures in DBA/2 mice after pretreatment with aniracetam+ 2,3-benzodiazepine (p<0.01); assay type: functional
Mus musculus [7] = test: Effective dose required for anticonvulsant activity against PTZ-induced Clonic seizure in Swiss mice 45 minutes after ip administration of the compound; details: 0.75 h
Mus musculus [8] = test: Effective dose required for anticonvulsant activity against Clonic phase of seizure in DBA/2 mice 90 minutes after ip administration of the compound; assay type: functional; details: 1.5 h
Mus musculus [9] = test: Effective dose required for anticonvulsant activity against Clonic phase of seizure in DBA/2 mice 60 minutes after ip administration of the compound; assay type: functional; details: 1 h
Mus musculus [10] = test: Effective dose required for anticonvulsant activity against Clonic phase of seizure in DBA/2 mice 120 minutes after ip administration of the compound; assay type: functional; details: 2 h
Mus musculus [11] = test: Effective dose required for anticonvulsant activity against Clonic phase of seizure in DBA/2 mice 30 minutes after ip administration of the compound; assay type: functional; details: 0.5 h
Mus musculus [12] = test: Effective dose required for anticonvulsant activity against AMPA-induced clonic seizure in Swiss mice 45 minutes after ip administration of the compound; assay type: functional; details: 0.75 h
Mus musculus [13] = test: Effective dose required for anticonvulsant activity against MES-induced Tonic seizure in Swiss mice 45 minutes after ip administration of the compound; assay type: functional; details: 0.75 h
Mus musculus [14] = test: Effective dose required for anticonvulsant activity against KA-induced seizure was evaluated in Swiss mice on sc administration at CD97 (32 mg/kg) 15 minutes after ip injection of compound.; assay type: functional; details: 0.25 h
Mus musculus [15] = test: Effective dose required for anticonvulsant activity against Clonic phase of seizure in DBA/2 mice 15 minutes after ip administration of the compound; assay type: functional; details: 0.25 h
Mus musculus [16] = test: Effective dose required for anticonvulsant activity against Clonic phase of seizure in DBA/2 mice 45 minutes after ip administration of the compound; assay type: functional; details: 0.75 h
Mus musculus [17] = test: Effective dose required for anticonvulsant activity against AMPA-induced Tonic seizure in DBA/2 mice 45 minutes after ip administration of the compound; details: 0.75 h
Mus musculus [18] = species on record: Mus musculus; test: Percent reduction of KA-evoked current with the patch clamp technique in cerebellar granule neurons grown in primary culture at a dose level of 100 uM was evaluated; assay type: functional
Mus musculus [19] = test: Effective dose required for anticonvulsant activity against AMPA-induced tonic seizure in Swiss mice 45 minutes after ip administration of the compound; assay type: functional; details: 0.75 h

SMILES	Ratio (Mus musculus [1])	ED50 [2] [µmol/kg]	ED50 [3] [µmol/kg]	TD50 (Mus musculus [4]) [µM/kg]	other results
O=C1Cc2cc3c(cc2C(c2ccccc2)=NN1)OCO3	3.7	–	–	–	–
CCC(=O)NN1NC(c2ccc(N)cc2)c2cc3c(cc2CC1=O)OCO3 (centres undefined)	3.5	24.6	18.1	86.1	–
CCCC(=O)NN1N=C(c2ccc(N)cc2)c2cc3c(cc2CC1=O)OCO3	3.4	69.4	5.09	398	–
CCC(=O)NN1N=C(c2ccc(N)cc2)c2cc3c(cc2CC1=O)OCO3	3.6	11.4	6.47	41.2	–
CCCC(=O)NN1NC(c2ccc(N)cc2)c2cc3c(cc2CC1=O)OCO3 (centres undefined)	2.8	38.7	32.6	108	–
Nc1ccc(C2NNC(=O)Cc3cc4c(cc32)OCO4)cc1 (centres undefined)	3.6	11.4	6.47	–	ED50 (Mus musculus [5]): 52.3 µmol/kg; ED50 (Mus musculus [6]): 33.1 µmol/kg; ED50 (Mus musculus [7]): 59.7 µmol/kg; ED50 (Mus musculus [8]): 37.1 µmol/kg; ED50 (Mus musculus [9]): 23.4 µmol/kg; ED50 (Mus musculus [10]): 39.5 µmol/kg; ED50 (Mus musculus [11]): 11.4 µmol/kg; ED50 (Mus musculus [12]): 24.6 µmol/kg; ED50 (Mus musculus [13]): 35.7 µmol/kg; ED50 (Mus musculus [14]): 15.9 µmol/kg; ED50 (Mus musculus [15]): > 50 µmol/kg; ED50 (Mus musculus [16]): 18.7 µmol/kg; ED50 (Mus musculus [17]): 17.5 µmol/kg; Reduction (Mus musculus [18]): 38%
Nc1ccc(C2=NNC(=O)Cc3cc4c(cc32)OCO4)cc1	–	–	–	–	ED50 (Mus musculus [12]): 37.6 µmol/kg; ED50 (Mus musculus [19]): 27 µmol/kg
CCCCC(=O)NN1N=C(c2ccc(N)cc2)c2cc3c(cc2CC1=O)OCO3	4.7	22.4	14.2	673	–
CC(=O)NN1NC(c2ccc(N)cc2)c2cc3c(cc2CC1=O)OCO3 (centres undefined)	2.6	69.4	49.2	182	–
CC(=O)NN1N=C(c2ccc(N)cc2)c2cc3c(cc2CC1=O)OCO3	4.5	15.4	10.9	–	ED50 (Mus musculus [4]): 99.1 µmol/kg
CC1=NN=C(c2ccc(N)cc2)c2cc3c(cc2C1)OCO3 [GYKI-52466]	2.1	–	–	–	–
